How the values were obtained:
Type in all cases: functional
HCT-116 [1] = experiment: Cytotoxicity against human HCT116 cells assessed as cell growth at 1 uM after 48 hrs by SRB assay relative to control; settings: HCT-116, 48 h, read-out: Activity
HCT-116 [2] = experiment: Cytotoxicity against human HCT116 cells after 48 hrs by SRB assay; settings: HCT-116, 48 h
MDA-MB-231 = experiment: Cytotoxicity against human MDA-MB-231 cells assessed as cell growth at 1 uM after 48 hrs by SRB assay relative to control; settings: MDA-MB-231, 48 h, read-out: Activity
SK-OV-3 = experiment: Cytotoxicity against human SKOV3 cells after 48 hrs by SRB assay; settings: SK-OV-3, 48 h
UACC-62 = experiment: Cytotoxicity against human UACC62 cells assessed as cell growth at 100 uM after 48 hrs by SRB assay relative to control; settings: UACC-62, 48 h, read-out: Activity
COLO 205 = experiment: Cytotoxicity against human COLO205 cells after 48 hrs by SRB assay; settings: COLO 205, 48 h
IGROV-1 = experiment: Cytotoxicity against human IGROV1 cells assessed as cell growth at 0.1 uM after 48 hrs by SRB assay relative to control; settings: IGROV-1, 48 h, read-out: Activity
SK-MEL-28 = experiment: Cytotoxicity against human SK-MEL-28 cells assessed as cell growth at 100 uM after 48 hrs by SRB assay relative to control; settings: SK-MEL-28, 48 h, read-out: Activity
KM12 = experiment: Cytotoxicity against human KM12 cells after 48 hrs by SRB assay; settings: KM12, 48 h
SR = experiment: Cytotoxicity against human SR cells assessed as cell growth at 0.01 uM after 48 hrs by SRB assay relative to control; settings: read-out: Activity
TK-10 = experiment: Cytotoxicity against human TK10 cells assessed as cell growth at 1 uM after 48 hrs by SRB assay relative to control; settings: TK-10, 48 h, read-out: Activity
BT-549 = experiment: Cytotoxicity against human BT549 cells assessed as cell growth at 0.1 uM after 48 hrs by SRB assay relative to control; settings: BT-549, 48 h, read-out: Activity
SN12C = experiment: Cytotoxicity against human SN12C cells assessed as cell growth at 0.01 uM after 48 hrs by SRB assay relative to control; settings: read-out: Activity
MDA-MB-435 [3] = experiment: Cytotoxicity against human MDA-MB-435 cells assessed as cell growth at 0.01 uM after 48 hrs by SRB assay relative to control; settings: MDA-MB-435, 48 h, read-out: Activity
NCI/ADR-RES = experiment: Cytotoxicity against human NCI-ADR-RES cells after 48 hrs by SRB assay; settings: for CC50: read-out: LC50 (the source's name)
SNB-19 = experiment: Cytotoxicity against human SNB19 cells assessed as cell growth at 0.01 uM after 48 hrs by SRB assay relative to control; settings: SNB-19, 48 h, read-out: Activity
SK-MEL-5 = experiment: Cytotoxicity against human SK-MEL-5 cells after 48 hrs by SRB assay; settings: SK-MEL-5, 48 h; for CC50: read-out: LC50 (the source's name)
HT-29 = experiment: Cytotoxicity against human HT-29 cells assessed as cell growth at 1 uM after 48 hrs by SRB assay relative to control; settings: HT-29, 48 h, read-out: Activity
DU-145 = experiment: Cytotoxicity against human DU145 cells after 48 hrs by SRB assay; settings: DU-145, 48 h
M14 = experiment: Cytotoxicity against human M14 cells assessed as cell growth at 0.01 uM after 48 hrs by SRB assay relative to control; settings: M14, 48 h, read-out: Activity
T47D = experiment: Cytotoxicity against human T47D cells assessed as cell growth at 1 uM after 48 hrs by SRB assay relative to control; settings: read-out: Activity
Malme-3M = experiment: Cytotoxicity against human MALME-3M cells assessed as cell growth at 100 uM after 48 hrs by SRB assay relative to control; settings: read-out: Activity
SNB-75 = experiment: Cytotoxicity against human SNB75 cells assessed as cell growth at 1 uM after 48 hrs by SRB assay relative to control; settings: SNB-75, 48 h, read-out: Activity
SF-539 [4] = experiment: Cytotoxicity against human SF539 cells assessed as cell growth at 0.1 uM after 48 hrs by SRB assay relative to control; settings: SF-539, 48 h, read-out: Activity
MOLT-4 = experiment: Cytotoxicity against human MOLT4 cells assessed as cell growth at 0.1 uM after 48 hrs by SRB assay relative to control; settings: MOLT-4, 48 h, read-out: Activity
HL-60(TB) = experiment: Cytotoxicity against human HL-60(TB) cells assessed as cell growth at 100 uM after 48 hrs by SRB assay relative to control; settings: HL-60, 48 h, read-out: Activity
MDA-MB-435 [5] = experiment: Cytotoxicity against human MDA-MB-435 cells assessed as cell growth at 1 uM after 48 hrs by SRB assay relative to control; settings: MDA-MB-435, 48 h, read-out: Activity
786-0 = experiment: Cytotoxicity against human 786-O cells assessed as cell growth at 100 uM after 48 hrs by SRB assay relative to control; settings: 786-0, 48 h, read-out: Activity
HOP-92 = experiment: Cytotoxicity against human HOP92 cells assessed as cell growth at 100 uM after 48 hrs by SRB assay relative to control; settings: HOP-92, 48 h, read-out: Activity
MDA-MB-468 = experiment: Cytotoxicity against human MDA-MB-468 cells assessed as cell growth at 100 uM after 48 hrs by SRB assay relative to control; settings: MDA-MB-468, 48 h, read-out: Activity
OVCAR-5 = experiment: Cytotoxicity against human OVCAR5 cells assessed as cell growth at 100 uM after 48 hrs by SRB assay relative to control; settings: OVCAR-5, 48 h, read-out: Activity
UACC-257 = experiment: Cytotoxicity against human UACC257 cells after 48 hrs by SRB assay; settings: UACC-257, 48 h
SF-539 [6] = experiment: Cytotoxicity against human SF539 cells assessed as cell growth at 1 uM after 48 hrs by SRB assay relative to control; settings: SF-539, 48 h, read-out: Activity
HCT-15 = experiment: Cytotoxicity against human HCT15 cells assessed as cell growth at 0.01 uM after 48 hrs by SRB assay relative to control; settings: HCT-15, 48 h, read-out: Activity
Hs-578T = experiment: Cytotoxicity against human Hs 578T cells assessed as cell growth at 0.01 uM after 48 hrs by SRB assay relative to control; settings: read-out: Activity

Cn1cc(C2=C(c3cn(C)c4ncccc34)C(=O)NC2=O)c2ccccc21
growth at 1 µM (HCT-116 [1]): 86% | GI50 (HCT-116 [2]): 3.24 µM | TGI (HCT-116 [2]): 30.2 µM | growth at 1 µM (MDA-MB-231): 79% | GI50 (SK-OV-3): 2.09 µM | TGI (SK-OV-3): 8 µM | growth at 100 µM (UACC-62): -51% | GI50 (COLO 205): 1.69 µM | TGI (COLO 205): 3.71 µM | growth at 0.1 µM (IGROV-1): 97% | growth at 100 µM (SK-MEL-28): -24% | GI50 (KM12): 2.89 µM | TGI (KM12): 13.4 µM | growth at 0.01 µM (SR): 89% | growth at 1 µM (TK-10): 87% | growth at 0.1 µM (BT-549): 98% | growth at 0.01 µM (SN12C): 89% | growth at 0.01 µM (MDA-MB-435 [3]): 98% | GI50 (NCI/ADR-RES): 5.19 µM | TGI (NCI/ADR-RES): 44 µM | CC50 (NCI/ADR-RES): > 100 µM | growth at 0.01 µM (SNB-19): 92% | GI50 (SK-MEL-5): 2.15 µM | TGI (SK-MEL-5): 5.8 µM | CC50 (SK-MEL-5): 21.8 µM | growth at 1 µM (HT-29): 93% | GI50 (DU-145): 6.24 µM | TGI (DU-145): 36.2 µM | growth at 0.01 µM (M14): 105% | growth at 1 µM (T47D): 74% | growth at 100 µM (Malme-3M): -11% | growth at 1 µM (SNB-75): 32% | growth at 0.1 µM (SF-539 [4]): 107% | growth at 0.1 µM (MOLT-4): 119% | growth at 100 µM (HL-60(TB)): -28% | growth at 1 µM (MDA-MB-435 [5]): 40% | growth at 100 µM (786-0): -19% | growth at 100 µM (HOP-92): -21% | growth at 100 µM (MDA-MB-468): -56% | growth at 100 µM (OVCAR-5): -15% | GI50 (UACC-257): 6.32 µM | TGI (UACC-257): 54.8 µM | growth at 1 µM (SF-539 [6]): 86% | growth at 0.01 µM (HCT-15): 100% | growth at 0.01 µM (Hs-578T): 91%

N#CCCCCCn1cc(C2=C(c3cn(CCCCCC#N)c4ccccc34)C(=O)N(O)C2=O)c2ccccc21
growth at 1 µM (HCT-116 [1]): 98% | GI50 (HCT-116 [2]): 4.17 µM | LC50 (HCT-116 [2]): > 100 µM | TGI (HCT-116 [2]): 37.8 µM | growth at 1 µM (MDA-MB-231): 82% | GI50 (SK-OV-3): 7.78 µM | LC50 (SK-OV-3): > 100 µM | TGI (SK-OV-3): > 100 µM | growth at 100 µM (UACC-62): -55% | GI50 (COLO 205): 17.7 µM | LC50 (COLO 205): > 100 µM | TGI (COLO 205): 58.7 µM | growth at 0.1 µM (IGROV-1): 101% | growth at 100 µM (SK-MEL-28): 4% | GI50 (KM12): 4.78 µM | LC50 (KM12): > 100 µM | TGI (KM12): 33.1 µM | growth at 0.01 µM (SR): 84% | growth at 1 µM (TK-10): 107% | growth at 0.1 µM (BT-549): 92% | growth at 0.01 µM (SN12C): 97% | growth at 0.01 µM (MDA-MB-435 [3]): 95% | GI50 (NCI/ADR-RES): 20.4 µM | TGI (NCI/ADR-RES): > 100 µM | CC50 (NCI/ADR-RES): > 100 µM | growth at 0.01 µM (SNB-19): 97% | GI50 (SK-MEL-5): 2.92 µM | TGI (SK-MEL-5): 10.6 µM | CC50 (SK-MEL-5): 42.8 µM | growth at 1 µM (HT-29): 106% | GI50 (DU-145): 27.8 µM | LC50 (50% lethal concentration) (DU-145): > 100 µM | TGI (DU-145): > 100 µM | growth at 0.01 µM (M14): 97% | growth at 1 µM (T47D): 89% | growth at 100 µM (Malme-3M): -14% | growth at 1 µM (SNB-75): 80% | growth at 0.1 µM (SF-539 [4]): 90% | growth at 0.1 µM (MOLT-4): 81% | growth at 100 µM (HL-60(TB)): -27% | growth at 1 µM (MDA-MB-435 [5]): 96% | growth at 100 µM (786-0): 6% | growth at 100 µM (HOP-92): 11% | growth at 100 µM (MDA-MB-468): -15% | growth at 100 µM (OVCAR-5): 18% | GI50 (UACC-257): 12.1 µM | LC50 (UACC-257): > 100 µM | TGI (UACC-257): 55.6 µM | growth at 1 µM (SF-539 [6]): 93% | growth at 0.01 µM (HCT-15): 93% | growth at 0.01 µM (Hs-578T): 93%

Reference: ChEMBL document CHEMBL4229455, “Synthesis and anticancer activity of novel bisindolylhydroxymaleimide derivatives with potent GSK-3 kinase inhibition” (Bioorg Med Chem, 2018)
